Source: ChEMBL document CHEMBL5365419, “Identification of a Protein Arginine Methyltransferase 7 (PRMT7)/Protein Arginine Methyltransferase 9 (PRMT9) Inhibitor” (J Med Chem, 2023)
Calls of active or inactive are those of the source. The rule behind the calls is not given here.

Legend:
[1] = target: T1, Protein arginine N-methyltransferase 7 (Homo sapiens) (UniProt Q9NVM4); assay: Inhibition of PRMT7 catalysed methylation of HSP70 at R469 residue in HEK293T cells assessed as increase in ratio of abundance of unmethylated over methylated peptides measured after 24 to 48 hrs by UHPLC- MS/MS analysis; assay type: cell-based; conditions: dose 10-50 µM, time 24-48 hrs
T1 sequence (whole entry): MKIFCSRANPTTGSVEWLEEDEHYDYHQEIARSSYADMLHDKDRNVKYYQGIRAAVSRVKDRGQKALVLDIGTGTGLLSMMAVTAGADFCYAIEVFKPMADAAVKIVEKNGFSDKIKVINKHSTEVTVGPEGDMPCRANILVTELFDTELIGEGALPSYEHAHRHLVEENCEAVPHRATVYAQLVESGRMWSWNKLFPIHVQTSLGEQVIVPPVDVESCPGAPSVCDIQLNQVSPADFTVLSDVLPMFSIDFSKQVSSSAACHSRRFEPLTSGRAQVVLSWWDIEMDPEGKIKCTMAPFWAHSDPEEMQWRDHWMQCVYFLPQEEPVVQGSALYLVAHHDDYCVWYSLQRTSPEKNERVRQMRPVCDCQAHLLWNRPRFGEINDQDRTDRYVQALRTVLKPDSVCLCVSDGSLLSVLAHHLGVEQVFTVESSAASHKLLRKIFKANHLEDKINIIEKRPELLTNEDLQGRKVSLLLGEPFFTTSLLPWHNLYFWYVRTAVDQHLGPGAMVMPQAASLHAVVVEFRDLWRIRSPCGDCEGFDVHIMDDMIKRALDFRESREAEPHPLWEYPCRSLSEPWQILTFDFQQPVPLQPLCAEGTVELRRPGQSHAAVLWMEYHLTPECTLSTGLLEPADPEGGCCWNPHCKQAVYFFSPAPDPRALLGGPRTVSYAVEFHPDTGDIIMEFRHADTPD

[2] = target: T1, Protein arginine N-methyltransferase 7 (Homo sapiens); assay: Inhibition of PRMT7 catalysed methylation of HNRNPA1 at R194 residue in HEK293T cells assessed as increase in ratio of abundance of unmethylated over methylated peptides measured after 24 to 48 hrs by UHPLC- MS/MS analysis; assay type: cell-based; conditions: dose 10-50 µM, time 24-48 hrs
[3] = target: Histone-lysine N-methyltransferase EZH2 (Homo sapiens) (UniProt Q15910); assay: Inhibition of N-terminal His-tagged human full-length recombinant EZH2 (2 to 746 residues) in PRC2 complex at higher concentration using core histone as substrate and 3H-SAM as cosubstrate incubated for 60 mins by scintillation counter analysis
[4] = target: Histone-lysine N-methyltransferase SUV39H2 (Homo sapiens) (UniProt Q9H5I1); assay: Inhibition of N-terminal/C-terminal His/GST-tagged human recombinant SUV39H2 (46 to 410 residues) at higher concentration using H3 histone as substrate and 3H-SAM as cosubstrate incubated for 60 mins by scintillation counter analysis
[5] = target: T1, Protein arginine N-methyltransferase 7 (Homo sapiens); assay: Inhibition of PRMT7 catalysed methylation of HSP70 at R469 residue in HEK293T cells assessed as increase in ratio of abundance of unmethylated over methylated peptides at 10 to 50 uM measured after 24 to 48 hrs by UHPLC- MS/MS analysis; assay type: cell-based; conditions: dose 10-50 µM, time 24-48 hrs
[6] = target: T2, Histone-lysine N-methyltransferase SETD7 (Homo sapiens) (UniProt Q8WTS6); assay: Inhibition of N-terminal/C-terminal His/GST-tagged human recombinant SET7/9 (2 to 366 residues) at higher concentration using core histone as substrate and 3H-SAM as cosubstrate incubated for 60 mins by scintillation counter analysis
T2 sequence (whole entry): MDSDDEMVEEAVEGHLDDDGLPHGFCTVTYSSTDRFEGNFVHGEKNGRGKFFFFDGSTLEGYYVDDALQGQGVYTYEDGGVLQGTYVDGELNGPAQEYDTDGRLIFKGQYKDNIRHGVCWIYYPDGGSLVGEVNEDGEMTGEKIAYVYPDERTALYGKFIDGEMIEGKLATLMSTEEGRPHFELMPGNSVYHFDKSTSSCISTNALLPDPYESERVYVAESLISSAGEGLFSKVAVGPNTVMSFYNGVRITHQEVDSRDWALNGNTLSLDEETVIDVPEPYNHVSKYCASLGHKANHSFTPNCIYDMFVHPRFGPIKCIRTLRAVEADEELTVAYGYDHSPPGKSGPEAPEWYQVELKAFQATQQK

[7] = target: Histone-lysine N-methyltransferase ASH1L (Homo sapiens) (UniProt Q9NR48); assay: Inhibition of N-terminal His-tagged human recombinant ASH1L (2046 to 2330 residues) at higher concentration using oligo nucleosomes as substrate and 3H-SAM as cosubstrate incubated for 60 mins by scintillation counter analysis
[8] = target: Histone-lysine N-methyltransferase, H3 lysine-79 specific (Homo sapiens) (UniProt Q8TEK3); assay: Inhibition of N-terminal/C-terminal His/GST-tagged human recombinant DOT1L (1 to 416 residues) at 10 uM using oligo nucleosome as substrate and 3H-SAM as cosubstrate incubated for 60 mins by scintillation counter analysis
[9] = target: T1, Protein arginine N-methyltransferase 7 (Homo sapiens); assay: Inhibition of PRMT7 catalysed methylation of HNRNPA1 at R194 residue in HEK293T cells assessed as increase in ratio of abundance of unmethylated over methylated peptides at 10 to 50 uM measured after 24 to 48 hrs by UHPLC- MS/MS analysis; assay type: cell-based; conditions: dose 10-50 µM, time 24-48 hrs
Homo sapiens = species: Homo sapiens; assay: Inhibition of N-terminal/C-terminal His-tagged human recombinant MLL1 (3745 to 3969 residues)/WDR5 (22 to 334 residues)/RbBP5 (1 to 538 residues)/ASH2L (2 to 534 residues)/DPY-30 (1 to 99 residues) complex at higher concentration using oligo nucleosomes as substrate and 3H-SAM as cosubstrate incubated for 60 mins by scintillation counter analysis
[10] = target: T1, Protein arginine N-methyltransferase 7 (Homo sapiens); assay: Inhibition of PRMT7 catalysed methylation of HSP70 at R469 residue in HEK293T cells assessed as increase in ratio of abundance of unmethylated over methylated peptides at 10 to 50 uM by UHPLC- MS/MS analysis; assay type: cell-based; conditions: dose 10-50 µM, time 24-48 hrs, TDE = time-dependent effect
[11] = target: T1, Protein arginine N-methyltransferase 7 (Homo sapiens); assay: Inhibition of PRMT7 catalysed methylation of HNRNPA1 at R194 residue in HEK293T cells assessed as increase in ratio of abundance of unmethylated over methylated peptides at 10 to 50 uM by UHPLC- MS/MS analysis; assay type: cell-based; conditions: dose 10-50 µM, time 24-48 hrs, TDE = time-dependent effect

Histone-lysine N-methyltransferase, H3 lysine-79 specific (Homo sapiens), sequence (Q8TEK3 whole entry, looked up, the tested form may be a part): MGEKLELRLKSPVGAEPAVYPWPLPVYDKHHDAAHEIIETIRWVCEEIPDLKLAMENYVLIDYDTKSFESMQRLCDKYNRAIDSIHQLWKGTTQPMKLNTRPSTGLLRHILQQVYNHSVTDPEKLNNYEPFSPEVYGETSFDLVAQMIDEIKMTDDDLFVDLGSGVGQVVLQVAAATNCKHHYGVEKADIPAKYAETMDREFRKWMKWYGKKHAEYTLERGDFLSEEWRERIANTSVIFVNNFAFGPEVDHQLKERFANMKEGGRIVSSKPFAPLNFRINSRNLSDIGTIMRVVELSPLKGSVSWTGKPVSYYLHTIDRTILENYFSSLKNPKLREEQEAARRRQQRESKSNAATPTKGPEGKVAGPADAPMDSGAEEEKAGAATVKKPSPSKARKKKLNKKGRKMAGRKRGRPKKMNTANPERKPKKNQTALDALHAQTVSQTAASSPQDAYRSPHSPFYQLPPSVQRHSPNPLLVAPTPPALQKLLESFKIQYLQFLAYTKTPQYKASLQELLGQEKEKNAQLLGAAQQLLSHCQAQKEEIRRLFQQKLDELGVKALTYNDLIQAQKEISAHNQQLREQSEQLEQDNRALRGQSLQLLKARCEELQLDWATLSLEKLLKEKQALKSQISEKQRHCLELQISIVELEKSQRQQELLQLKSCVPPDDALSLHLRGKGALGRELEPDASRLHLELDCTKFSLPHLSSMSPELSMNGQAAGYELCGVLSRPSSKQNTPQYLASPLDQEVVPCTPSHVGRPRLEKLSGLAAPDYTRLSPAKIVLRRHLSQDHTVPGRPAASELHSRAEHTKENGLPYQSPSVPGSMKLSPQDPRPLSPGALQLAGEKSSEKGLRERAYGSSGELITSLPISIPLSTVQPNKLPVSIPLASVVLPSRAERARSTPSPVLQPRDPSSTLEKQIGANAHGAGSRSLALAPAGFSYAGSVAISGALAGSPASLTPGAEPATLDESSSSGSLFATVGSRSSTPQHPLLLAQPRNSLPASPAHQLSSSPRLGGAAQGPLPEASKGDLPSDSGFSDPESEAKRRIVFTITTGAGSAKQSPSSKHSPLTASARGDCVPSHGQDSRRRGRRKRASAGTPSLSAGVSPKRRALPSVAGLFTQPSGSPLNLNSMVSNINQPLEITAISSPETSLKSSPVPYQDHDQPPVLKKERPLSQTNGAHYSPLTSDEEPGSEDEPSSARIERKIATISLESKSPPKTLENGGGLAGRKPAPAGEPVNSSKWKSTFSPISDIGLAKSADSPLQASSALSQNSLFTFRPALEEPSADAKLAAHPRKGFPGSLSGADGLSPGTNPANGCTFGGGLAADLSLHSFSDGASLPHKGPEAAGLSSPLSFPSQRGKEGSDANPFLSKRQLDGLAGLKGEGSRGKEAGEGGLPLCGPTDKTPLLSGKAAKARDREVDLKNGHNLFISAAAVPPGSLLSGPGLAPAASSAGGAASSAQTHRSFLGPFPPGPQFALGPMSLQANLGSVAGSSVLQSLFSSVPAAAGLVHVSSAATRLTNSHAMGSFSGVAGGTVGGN
Histone-lysine N-methyltransferase EZH2 (Homo sapiens), sequence (Q15910 whole entry, looked up, the tested form may be a part): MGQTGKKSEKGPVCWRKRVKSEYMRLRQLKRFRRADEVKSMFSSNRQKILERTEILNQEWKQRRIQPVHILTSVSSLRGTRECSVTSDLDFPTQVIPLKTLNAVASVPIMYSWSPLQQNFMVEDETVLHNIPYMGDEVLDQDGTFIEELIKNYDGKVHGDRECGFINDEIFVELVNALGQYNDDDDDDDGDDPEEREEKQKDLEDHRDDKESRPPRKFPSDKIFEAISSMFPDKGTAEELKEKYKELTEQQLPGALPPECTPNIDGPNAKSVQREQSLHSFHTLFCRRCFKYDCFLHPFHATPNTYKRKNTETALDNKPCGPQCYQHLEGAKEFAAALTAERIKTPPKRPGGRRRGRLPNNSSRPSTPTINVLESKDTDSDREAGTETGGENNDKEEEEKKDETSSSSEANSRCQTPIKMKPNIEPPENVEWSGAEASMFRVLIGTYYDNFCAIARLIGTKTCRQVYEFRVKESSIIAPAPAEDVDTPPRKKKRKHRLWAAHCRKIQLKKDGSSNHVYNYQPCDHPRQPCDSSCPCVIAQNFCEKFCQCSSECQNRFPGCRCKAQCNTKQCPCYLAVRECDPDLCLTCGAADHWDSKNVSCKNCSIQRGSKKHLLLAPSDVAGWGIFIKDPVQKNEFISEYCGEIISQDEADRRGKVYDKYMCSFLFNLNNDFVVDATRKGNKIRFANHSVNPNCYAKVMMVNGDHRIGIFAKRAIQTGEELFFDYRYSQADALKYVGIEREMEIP
Histone-lysine N-methyltransferase SUV39H2 (Homo sapiens), sequence (Q9H5I1 whole entry, the tested form may be a part): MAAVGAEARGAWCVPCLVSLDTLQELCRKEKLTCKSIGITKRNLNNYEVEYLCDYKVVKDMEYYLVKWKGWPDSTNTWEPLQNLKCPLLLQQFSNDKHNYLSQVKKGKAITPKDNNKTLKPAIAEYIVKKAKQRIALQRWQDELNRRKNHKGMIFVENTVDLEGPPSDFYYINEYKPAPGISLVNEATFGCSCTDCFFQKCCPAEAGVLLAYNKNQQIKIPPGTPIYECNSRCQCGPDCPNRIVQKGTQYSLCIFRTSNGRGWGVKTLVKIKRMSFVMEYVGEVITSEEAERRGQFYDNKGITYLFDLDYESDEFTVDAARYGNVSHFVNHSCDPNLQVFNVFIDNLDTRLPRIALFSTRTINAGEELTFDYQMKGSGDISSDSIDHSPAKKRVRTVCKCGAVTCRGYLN

COC(=O)c1cc(O)c2cc(NC(=O)NCCCNC(=N)NC[C@H]3O[C@@H](n4cnc5c(N)ncnc54)[C@H](O)[C@@H]3O)cc(C(F)(F)F)c2c1
inhibition [1]: Dose-Dependent Effect
inhibition [2]: Dose-Dependent Effect
inhibition [3]: inactive
inhibition [4]: inactive
inhibition [5]: Active
inhibition [6]: inactive
inhibition [7]: inactive
inhibition [8]: Active
inhibition [9]: Active
inhibition (Homo sapiens): inactive
inhibition [10]: Tde
inhibition [11]: Tde
